According to ChEMBL document CHEMBL3616474, “Synthesis of arabinose glycosyl sulfamides as potential inhibitors of mycobacterial cell wall biosynthesis” (2015):
Converted amounts (≈) assume the structure as drawn.

The compounds below were run on Mycolicibacterium smegmatis (assay: Antimicrobial activity against Mycobacterium smegmatis incubated for 18 hrs by Alamar blue assay).
Assay type: functional

| MIC90 | SMILES |
| --- | --- |
| 500 µg/mL (≈ 2120 µM) | CCCCCCCCCCNS(N)(=O)=O |
| > 1000 µg/mL | CCCCCCNS(=O)(=O)N[C@H]1OC[C@@H](O)[C@@H](O)[C@@H]1O |
| 500 µg/mL (≈ 1470 µM) | CCCCCCCCNS(=O)(=O)N[C@H]1OC[C@@H](O)[C@@H](O)[C@@H]1O |
| 62 µg/mL (≈ 168 µM) | CCCCCCCCCCNS(=O)(=O)N[C@H]1OC[C@@H](O)[C@@H](O)[C@@H]1O |
| 250 µg/mL (≈ 630 µM) | CCCCCCCCCCCCNS(=O)(=O)N[C@H]1OC[C@@H](O)[C@@H](O)[C@@H]1O |
| > 1000 µg/mL | CCCCCCCCCCCCCCNS(=O)(=O)N[C@H]1OC[C@@H](O)[C@@H](O)[C@@H]1O |
| 125 µg/mL (≈ 315 µM) | CCCCCCN(CCCCCC)S(=O)(=O)N[C@H]1OC[C@@H](O)[C@@H](O)[C@@H]1O |
| 500 µg/mL (≈ 1100 µM) | CCCCCCCCN(CCCCCCCC)S(=O)(=O)N[C@H]1OC[C@@H](O)[C@@H](O)[C@@H]1O |
| > 1000 µg/mL | CCCCCCCCCCN(CCCCCCCCCC)S(=O)(=O)N[C@H]1OC[C@@H](O)[C@@H](O)[C@@H]1O |
| > 1000 µg/mL | CCCCCCCCCCCCN(CCCCCCCCCCCC)S(=O)(=O)N[C@H]1OC[C@@H](O)[C@@H](O)[C@@H]1O |
| 125 µg/mL (≈ 339 µM) | CC(C)CCCC(C)CCNS(=O)(=O)N[C@H]1OC[C@@H](O)[C@@H](O)[C@@H]1O (stereo not given in full) |
| > 1000 µg/mL | O=S(=O)(NCCOCCO)N[C@H]1OC[C@@H](O)[C@@H](O)[C@@H]1O |
| > 1000 µg/mL | O=S(=O)(NCCOCCOCCO)N[C@H]1OC[C@@H](O)[C@@H](O)[C@@H]1O |
| > 1000 µg/mL | O=S(=O)(NCCOCCOCCOCCO)N[C@H]1OC[C@@H](O)[C@@H](O)[C@@H]1O |
| 4 µg/mL (≈ 29.2 µM) | NNC(=O)c1ccncc1 [ISONIAZID] |
